Source: ChEMBL document CHEMBL1687744, “Furanone at subinhibitory concentrations enhances staphylococcal biofilm formation by luxS repression” (Antimicrob Agents Chemother, 2009)
Converted amounts (≈) assume the structure as drawn. Values belong to the compound of their own block, whether it stands above or below them. The source made the active and inactive calls. The rule behind the calls is not given here.

How the values were obtained:
[1] = tested on: Staphylococcus epidermidis; experiment: Induction of biofilm formation in Staphylococcus epidermidis 1457 at 1 to 100 uM after 18 hrs by crystal violet staining; assay type: functional, organism-based
L929 [2] = experiment: Cytotoxicity against mouse L929 cells after 24 hrs at 18.6 +/- 12.3 uM by LDH release assay; assay type: cell-based; details: l929, 24 h
[3] = tested on: Staphylococcus epidermidis; experiment: Bactericidal activity against Staphylococcus epidermidis 1457 at >50 uM after 18 hrs by CFU count assay; assay type: functional, organism-based
Staphylococcus aureus [4] = experiment: Increase in biofilm formation in agr gene-deficient Staphylococcus aureus Newman by crystal violet staining; assay type: functional, organism-based
[5] = tested on: Staphylococcus epidermidis; experiment: Antimicrobial activity against Staphylococcus epidermidis 1457 by macrodilution method; assay type: functional
[6] = tested on: Staphylococcus epidermidis; experiment: Effect on agr quorum sensing system in Staphylococcus epidermidis 1457 assessed as RNA3 expression level at 2.5 to 20 uM; assay type: functional, organism-based
Staphylococcus aureus [7] = experiment: Bactericidal activity against Staphylococcus aureus Newman at >10 uM after 18 hrs by CFU count assay; assay type: functional, organism-based
Bacillus subtilis [8] = experiment: Induction of biofilm formation in Bacillus subtilis after 18 hrs by crystal violet staining; assay type: functional, organism-based
[9] = tested on: Staphylococcus epidermidis; experiment: Induction of biofilm formation in ica gene-deficient Staphylococcus epidermidis 047 after 18 hrs by crystal violet staining; assay type: functional, organism-based
[10] = tested on: Staphylococcus epidermidis; experiment: Effect on biofilm formation in luxS gene-deficient Staphylococcus epidermidis 1457 at >10 uM by crystal violet staining; assay type: functional, organism-based
[11] = tested on: Staphylococcus epidermidis; experiment: Increase in polysaccharide intercellular adhesin in Staphylococcus epidermidis 1457 at 2.5 to 20 uM by ant-PIA staining; assay type: functional, organism-based
Staphylococcus aureus [12] = experiment: Induction of biofilm formation in Staphylococcus aureus 113 after 18 hrs by crystal violet staining; assay type: functional, organism-based
[13] = tested on: Staphylococcus epidermidis; experiment: Reduction luxS mRNA level in Staphylococcus epidermidis 1457 at 20 uM; assay type: functional, organism-based
Staphylococcus aureus [14] = experiment: Antimicrobial activity against Staphylococcus aureus 113 by macrodilution method; assay type: functional
Staphylococcus aureus [15] = experiment: Increase in biofilm formation in Staphylococcus aureus Newman after 18 hrs by crystal violet staining; assay type: functional, organism-based
L929 [16] = experiment: Cytotoxicity against mouse L929 cells after 24 hrs at 28.4 +/- 8.4 uM by LDH release assay; assay type: cell-based; details: l929, 24 h
[17] = tested on: Staphylococcus epidermidis; experiment: Increase in biofilm formation in Staphylococcus epidermidis 047 at 0.1 times MIC to 0.2 X MIC after 18 hrs by crystal violet staining; assay type: functional, organism-based
Staphylococcus aureus [18] = experiment: Bactericidal activity against Staphylococcus aureus 113 at >10 uM after 18 hrs by CFU count assay; assay type: functional, organism-based
Bacillus subtilis [19] = experiment: Antimicrobial activity against Bacillus subtilis by macrodilution method; assay type: functional
Pseudomonas aeruginosa [20] = experiment: Inhibition of biofilm formation of Pseudomonas aeruginosa PAO1 at 0.322 uM to 2.58 mM; assay type: functional, organism-based
[21] = tested on: Staphylococcus epidermidis; experiment: Bactericidal activity against ica gene-deficient Staphylococcus epidermidis 1457 at >10 uM after 18 hrs by CFU count assay; assay type: functional, organism-based
Pseudomonas aeruginosa [22] = experiment: Antimicrobial activity against Pseudomonas aeruginosa PAO1 by macrodilution method; assay type: functional
[23] = tested on: Staphylococcus epidermidis; experiment: Bactericidal activity against Staphylococcus epidermidis 047 at >10 uM after 18 hrs by CFU count assay; assay type: functional, organism-based
[24] = tested on: Staphylococcus epidermidis; experiment: Antimicrobial activity against Staphylococcus epidermidis 047 by macrodilution method; assay type: functional
[25] = tested on: Staphylococcus epidermidis; experiment: Induction of biofilm formation in ica gene-deficient Staphylococcus epidermidis 1457 after 18 hrs by crystal violet staining; assay type: functional, organism-based
[26] = tested on: Staphylococcus epidermidis; experiment: Bactericidal activity against Staphylococcus epidermidis 1457 at >10 uM after 18 hrs by CFU count assay; assay type: functional, organism-based
[27] = tested on: Staphylococcus epidermidis; experiment: Antimicrobial activity against ica gene-deficient Staphylococcus epidermidis 1457 by macrodilution method; assay type: functional
[28] = tested on: Staphylococcus epidermidis; experiment: Induction of biofilm formation in Staphylococcus epidermidis 1457 at 0.1 times MIC to 0.2 X MIC after 18 hrs by crystal violet staining; assay type: functional, organism-based
[29] = tested on: Staphylococcus epidermidis; experiment: Antimicrobial activity against ica gene-deficient Staphylococcus epidermidis 047 by macrodilution method; assay type: functional
Staphylococcus aureus [30] = experiment: Increase in biofilm formation in Staphylococcus aureus Newman by crystal violet staining; assay type: functional, organism-based
Staphylococcus aureus [31] = experiment: Antimicrobial activity against Staphylococcus aureus Newman by macrodilution method; assay type: functional
[32] = tested on: Staphylococcus epidermidis; experiment: Bactericidal activity against ica gene-deficient Staphylococcus epidermidis 047 at >10 uM after 18 hrs by CFU count assay; assay type: functional, organism-based
L929 [33] = experiment: Cytotoxicity against mouse L929 cells after 24 hrs at 38.35 +/- 15.0 uM by LDH release assay; assay type: cell-based; details: l929, 24 h
L929 [34] = experiment: Cytotoxicity against mouse L929 cells after 24 hrs at 12.1 +/- 5.7 uM by LDH release assay; assay type: cell-based; details: l929, 24 h

SMILES: CCCC(Br)C1=C(Br)/C(=C/Br)OC1=O (configuration not stated)
- Activity [1]: inactive
- Activity (L929 [2]): 30%
- Activity [3]: Active

- MIC [5]: 50 µM (≈ 15.5 µg/mL)
- MIC (Staphylococcus aureus [14]): 15 µM (≈ 4.65 µg/mL)
- MIC (Bacillus subtilis [19]): 100 µM (≈ 31 µg/mL)
- MIC (Pseudomonas aeruginosa [22]): > 130 µM
- MIC [24]: 50 µM (≈ 15.5 µg/mL)
- MIC [27]: 65 µM (≈ 20.1 µg/mL)
- MIC [29]: 30 µM (≈ 9.3 µg/mL)
- MIC (Staphylococcus aureus [31]): 15 µM (≈ 4.65 µg/mL)
SMILES: CCCCC1=C(Br)/C(=C/Br)OC1=O
- Activity (Staphylococcus aureus [4]): Active
- MBC [5]: > 130 µM
- Activity [6]: inactive
- Activity (Staphylococcus aureus [7]): Active
- Activity (Bacillus subtilis [8]): inactive
- Activity [9]: inactive
- Activity [10]: inactive
- Activity [11]: Active
- Activity (Staphylococcus aureus [12]): inactive
- Activity [13]: Active
- MBC (Staphylococcus aureus [14]): > 130 µM
- Activity (Staphylococcus aureus [15]): Active
- Activity (L929 [16]): 30%
- Activity [17]: Active
- Activity (Staphylococcus aureus [18]): Active
- MBC (Bacillus subtilis [19]): 100 µM (≈ 31 µg/mL)
- inhibition (Pseudomonas aeruginosa [20]): Active
- Activity [21]: Active
- MBC (Pseudomonas aeruginosa [22]): > 130 µM
- Activity [23]: Active
- MBC [24]: > 130 µM
- Activity [3]: Active
- Activity [25]: inactive
- Activity [26]: Active
- MBC [27]: > 130 µM
- Activity [28]: Active
- MBC [29]: > 130 µM
- Activity (Staphylococcus aureus [30]): Active
- MBC (Staphylococcus aureus [31]): > 130 µM
- Activity [32]: Active

SMILES: C#CCOC(CCC)C1=C(Br)/C(=C/Br)OC1=O (configuration not stated)
- Activity [1]: inactive
- Activity [3]: Active
- Activity (L929 [33]): 30%

SMILES: CCCC(OCCOCCOCCN=[N+]=[N-])C1=C(Br)/C(=C/Br)OC1=O (configuration not stated)
- Activity [1]: inactive
- Activity (L929 [34]): 30%
- Activity [3]: Active
